The molecules below were run on Entamoeba histolytica (assay: Antiamoebic activity against Entamoeba histolytica HM1:IMSS after 72 hrs by microdilution method).
Assay type: functional, organism-based
An IC50 of 1500 nM was found for `O=[N+]([O-])c1cnc(/C=C/c2ccc(/C=N/NC(=S)NC3CCCCC3)cc2)n1CCO` in this work. An IC50 of 560 nM was found for `Cc1ccc(NC(=S)N/N=C/c2ccc(/C=C/c3ncc([N+](=O)[O-])n3CCO)cc2)cc1` in this work. An IC50 of 800 nM was found for `O=[N+]([O-])c1cnc(/C=C/c2ccc(/C=N/NC(=S)NC3CCCCCCC3)cc2)n1CCO` in this work. An IC50 of 1250 nM was found for `O=[N+]([O-])c1cnc(/C=C/c2ccc(/C=N/NC(=S)N3CCC(c4ccccc4)CC3)cc2)n1CCO` in this work. An IC50 of 1620 nM was found for `O=[N+]([O-])c1cnc(/C=C/c2ccc(/C=N/NC(=S)N3CCCCCC3)cc2)n1CCO` in this work. An IC50 of 1130 nM was found for `CC1CCN(C(=S)N/N=C/c2ccc(/C=C/c3ncc([N+](=O)[O-])n3CCO)cc2)CC1` in this work. An IC50 of 1180 nM was found for `O=[N+]([O-])c1cnc(/C=C/c2ccc(/C=N/NC(=S)N3CCCc4ccccc43)cc2)n1CCO` in this work. An IC50 of 3670 nM was found for `O=[N+]([O-])c1cnc(/C=C/c2ccc(/C=N/NC(=S)NCc3ccccc3Cl)cc2)n1CCO` in this work. An IC50 of 1920 nM was found for `O=[N+]([O-])c1cnc(/C=C/c2ccc(/C=N/NC(=S)N3CCCC3)cc2)n1CCO` in this work. An IC50 of 2340 nM was found for `CN(Cc1ccccc1)C(=S)N/N=C/c1ccc(/C=C/c2ncc([N+](=O)[O-])n2CCO)cc1` in this work. An IC50 of 1570 nM was found for `Cc1ccccc1NC(=S)N/N=C/c1ccc(/C=C/c2ncc([N+](=O)[O-])n2CCO)cc1` in this work.
